Experimental data taken from patent EP4741392A1, “1H-PYRAZOLO[4,3-C]PYRIDINE COMPOUND, AND COMPOSITION THEREOF AND USE THEREOF” (Shenzhen TargetRx Co., Ltd., priority 2023, dated 2025).

Key:
Format in all cases: biochemical
BTK C481S = molecular target: T1, BTK C481S (Homo sapiens, UniProt Q06187, C481S); assay: Kinase activity inhibition assay (HTRF TK Kit)
T1 construct: purchased Carna 08-547
Description: (§1) In this assay, the HTRF TK Kit (Catalog No. 62TK0PEC) provided by Cisbio was used to detect the inhibitory activity of compounds on BTK kinase, BTK T474I kinase and BTK C481 S kinase and the selectivity of compounds relative to EGFR, ITK and TEC kinases.
(§2) Reagents and consumables: BTK kinase (Invitrogen, Catalog No. PV3587), BTK C481S (Carna, Product No. 08-547), BTK T474I(SignalChem Product No. B10-12HH), ITK (Cama, Product No. 08-181), EGFR (Cama, Product No. 08-115), TEC (Carna, Product No. 08-182), HTRF-TK kit (Cisbio, Product No. 62TK0PEC), MgCl2 (Sigma, Product No. M1028), MnCl2 (Sigma, Product No. M1787), DTT (Sigma, Product No. D0632), ATP (Sigma, Product No. A7699-1g), DMSO (Sigma, Product No. D2650), 384-well plate (PE, Product No. 6008280).
(§3) The entire operation steps were carried out on ice, and the total reaction volume was 10µL. A compound (4µL), substrate and ATP (4µL), and kinase (2µL) were added in sequence to a 384-well plate, and the plate was shaken for 30 seconds. The mixture was reacted at room temperature for an appropriate time, and then the detection reagent was added. The resulting mixture was reacted at room temperature for 1 hour, and then the plate was assayed with a microplate reader. The specific steps were as follows: • a) a 1 × kinase buffer solution required for the kinase assay was calculated according to the amount of the test compound, and prepared as needed; • b) 2.5 × working concentration of a compound was prepared, 100-fold gradient concentration solutions of a compound were diluted by 40 × to the desired concentration, respectively, mixed well, and added to each well at 4 µL per well; • c) 5 × working concentration of the substrate and ATP were prepared, mixed in a ratio of 1:1 before being added to the 384-well plate, and added to each well at 4 µL per well; • d) 5 × working concentration of a kinase was prepared, 2 µL of which was added to each well; • e) the plate was shaken on a microplate shaker for 30 seconds, sealed with a sealing membrane, and the mixture was reacted at room temperature for an appropriate time; • f) 4 × working concentration of streptavidin XL-665 and TK antibody-cryptate compound were prepared, mixed in a ratio of 1:1 before being added to the 384-well plate, and added to each well at 10 µL per well; • g) the mixture was reacted at room temperature for 1 hour, and then the plate was read; • h) the wells with only substrate, ATP and 1% DMSO added but no kinase were blank control wells, and the wells with only substrate, ATP, 1% DMSO and kinase were positive control wells.
(§4) Readings: The values of 620 nm (cryptate) and 665 nm (XL665) were read with a BioTek Synerg Neo2 microplate reader, the ratio of 665/620 for each well was calculated, and the data were exported.
(§5) Data analysis: IC50 was calculated using GraphPad Prism 7.0 software.
(§6) The IC50 (half-maximal inhibitory concentration) of the compound was obtained using the following nonlinear fitting formula: Y = Bottom + (Top−Bottom)/(1+10^(∧)((LogIC50−X)*HillSlope)) [formula] • X: Log value of the compound concentration • Y: Inhibition rate (% inhibition) • Top: Maximum response • Bottom: Baseline response • HillSlope: Slope of the curve
(§7) The formula for calculating kinase inhibition rate (inhibition rate %) was: [formula]

BTK T474I = molecular target: T2, BTK T474I (Homo sapiens, UniProt Q06187, T474I); assay: Kinase activity inhibition assay (HTRF TK Kit)
T2 construct: purchased SignalChem B10-12HH
T2 sequence (Q06187 whole entry T474I): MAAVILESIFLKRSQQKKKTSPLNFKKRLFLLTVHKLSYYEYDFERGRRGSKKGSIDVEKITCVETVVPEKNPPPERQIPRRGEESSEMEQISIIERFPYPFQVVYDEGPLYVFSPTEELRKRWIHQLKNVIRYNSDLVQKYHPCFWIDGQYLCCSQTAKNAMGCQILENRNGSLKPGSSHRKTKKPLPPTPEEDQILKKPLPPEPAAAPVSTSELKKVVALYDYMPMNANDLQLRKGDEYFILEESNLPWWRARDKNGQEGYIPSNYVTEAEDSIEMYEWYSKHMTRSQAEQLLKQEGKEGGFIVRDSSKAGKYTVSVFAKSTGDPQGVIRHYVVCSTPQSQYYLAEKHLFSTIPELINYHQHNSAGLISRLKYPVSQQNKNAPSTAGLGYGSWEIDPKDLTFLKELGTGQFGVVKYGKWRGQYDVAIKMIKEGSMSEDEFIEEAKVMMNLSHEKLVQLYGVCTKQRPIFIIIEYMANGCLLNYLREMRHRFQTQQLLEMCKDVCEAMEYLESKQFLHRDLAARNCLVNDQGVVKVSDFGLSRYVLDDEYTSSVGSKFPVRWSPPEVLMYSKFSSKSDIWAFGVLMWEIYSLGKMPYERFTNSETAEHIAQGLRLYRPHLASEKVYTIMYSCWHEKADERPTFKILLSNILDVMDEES
Description: as §1, §2, §3, §4, §5, §6, §7

BTK kinase = molecular target: T3, BTK kinase (Homo sapiens, UniProt Q06187); assay: Kinase activity inhibition assay (HTRF TK Kit)
T3 construct: purchased Invitrogen PV3587
T3 sequence (Q06187 whole entry): as the sequence (Q06187 whole entry T474I) above, with I474T counted along it
Description: as §1, §2, §3, §4, §5, §6, §7

EGFR = molecular target: T4, EGFR (Homo sapiens, UniProt P00533); assay: Kinase activity inhibition assay (HTRF TK Kit), selectivity
T4 construct: purchased Carna 08-115
T4 sequence (P00533 669-1210 limits assumed): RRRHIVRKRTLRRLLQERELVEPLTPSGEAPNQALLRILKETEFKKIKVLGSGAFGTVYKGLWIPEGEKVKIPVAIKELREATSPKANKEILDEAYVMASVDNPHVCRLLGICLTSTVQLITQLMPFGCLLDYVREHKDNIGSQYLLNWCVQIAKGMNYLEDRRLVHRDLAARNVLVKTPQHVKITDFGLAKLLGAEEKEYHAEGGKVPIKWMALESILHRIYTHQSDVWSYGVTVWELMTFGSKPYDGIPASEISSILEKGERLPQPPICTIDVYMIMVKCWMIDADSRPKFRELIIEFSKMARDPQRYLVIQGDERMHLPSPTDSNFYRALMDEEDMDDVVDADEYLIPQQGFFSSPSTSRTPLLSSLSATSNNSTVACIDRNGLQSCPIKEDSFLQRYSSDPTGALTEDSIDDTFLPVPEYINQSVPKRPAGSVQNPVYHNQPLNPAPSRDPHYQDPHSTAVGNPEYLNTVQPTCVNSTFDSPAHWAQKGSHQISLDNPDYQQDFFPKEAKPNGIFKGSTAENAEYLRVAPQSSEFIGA
Description: as §1, §2, §3, §4, §5, §6, §7

ITK = molecular target: T5, ITK (Homo sapiens, UniProt Q08881); assay: as above
T5 construct: purchased Carna 08-181
T5 sequence (Q08881 1-620): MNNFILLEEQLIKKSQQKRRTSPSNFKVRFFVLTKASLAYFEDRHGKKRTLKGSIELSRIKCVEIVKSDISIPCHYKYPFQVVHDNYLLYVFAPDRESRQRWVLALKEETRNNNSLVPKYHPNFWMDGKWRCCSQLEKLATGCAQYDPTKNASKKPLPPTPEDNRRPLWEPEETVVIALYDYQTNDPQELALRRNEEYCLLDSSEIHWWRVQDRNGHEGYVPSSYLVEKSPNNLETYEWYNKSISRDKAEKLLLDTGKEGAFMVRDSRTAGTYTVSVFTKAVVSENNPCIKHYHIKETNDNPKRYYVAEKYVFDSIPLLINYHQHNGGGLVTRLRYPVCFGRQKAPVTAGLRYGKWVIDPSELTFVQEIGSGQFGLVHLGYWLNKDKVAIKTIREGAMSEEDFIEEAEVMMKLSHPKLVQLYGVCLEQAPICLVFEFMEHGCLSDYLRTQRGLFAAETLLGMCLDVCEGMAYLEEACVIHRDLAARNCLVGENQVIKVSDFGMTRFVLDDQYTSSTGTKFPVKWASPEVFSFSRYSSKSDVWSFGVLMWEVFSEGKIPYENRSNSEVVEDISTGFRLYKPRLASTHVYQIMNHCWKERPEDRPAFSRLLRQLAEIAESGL
Description: as §1, §2, §3, §4, §5, §6, §7

TEC = molecular target: T6, TEC (Homo sapiens, UniProt P42680); assay: as above
T6 construct: purchased Carna 08-182
T6 sequence (P42680 1-631): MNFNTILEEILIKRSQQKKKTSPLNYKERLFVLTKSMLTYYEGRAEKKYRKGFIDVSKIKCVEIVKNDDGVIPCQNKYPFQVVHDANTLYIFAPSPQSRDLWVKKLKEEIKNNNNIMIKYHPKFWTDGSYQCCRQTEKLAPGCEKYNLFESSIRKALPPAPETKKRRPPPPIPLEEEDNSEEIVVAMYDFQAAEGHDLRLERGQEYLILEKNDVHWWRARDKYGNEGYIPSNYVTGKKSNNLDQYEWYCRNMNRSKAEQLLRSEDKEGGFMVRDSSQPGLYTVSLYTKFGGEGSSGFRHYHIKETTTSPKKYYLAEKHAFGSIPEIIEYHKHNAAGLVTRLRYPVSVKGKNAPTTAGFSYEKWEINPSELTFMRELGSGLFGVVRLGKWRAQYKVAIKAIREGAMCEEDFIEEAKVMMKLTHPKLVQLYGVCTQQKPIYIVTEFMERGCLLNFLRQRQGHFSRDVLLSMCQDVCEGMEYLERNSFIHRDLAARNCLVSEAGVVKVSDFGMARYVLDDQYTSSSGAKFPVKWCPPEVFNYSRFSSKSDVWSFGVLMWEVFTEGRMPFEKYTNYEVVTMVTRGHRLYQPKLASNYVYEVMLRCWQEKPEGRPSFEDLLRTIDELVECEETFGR
Description: as §1, §2, §3, §4, §5, §6, §7

T1 sequence (Q06187 whole entry C481S): as the sequence (Q06187 whole entry T474I) above, with I474T, C481S counted along it

Row | IC50 (BTK C481S) [nM] | IC50 (BTK T474I) [nM] | IC50 (BTK kinase) [nM] | IC50 (EGFR) [nM] | IC50 (ITK) [nM] | IC50 (TEC) [nM] | Structure (SMILES)
1 | 1 to 5 | 50 to 500 | 1 to 5 | 50 to 500 | > 500 | 50 to 500 | COc1ccc(F)cc1C(=O)NCc1ccc(-c2nc(C(C)C(F)(F)F)cc3[nH]nc(N)c23)cc1 (single isomer, unassigned) [Example 2, N-(4-(3-amino-6-(1,1,1-trifluoropropan-2-yl)-1H-pyrazolo[4,3-c]pyridin-4-yl)benzyl)-5-fluoro-2-methoxybenzamide]
2 | 1 to 5 | 50 to 500 | 1 to 5 | > 500 | > 500 | 50 to 500 | COc1ccc(F)cc1C(=O)NCc1ccc(-c2nc(C(C)C(F)(F)F)cc3[nH]nc(N)c23)cc1 (single isomer, unassigned) [Example 3, N-(4-(3-amino-6-(1,1,1-trifluoropropan-2-yl)-1H-pyrazolo[4,3-c]pyridin-4-yl)benzyl)-5-fluoro-2-methoxybenzamide]
3 | 1 to 5 | 5 to 50 | 1 to 5 | > 500 | > 500 | 50 to 500 | COc1ccc(F)cc1C(=O)NCc1ccc(-c2nc(C(C)C(F)(F)F)c(-c3ccn(C)n3)c3[nH]nc(N)c23)cc1 (single isomer, unassigned) [Example 6-1, N-(4-(3-amino-7-(1-methyl-1H-pyrazol-3-yl)-6-(1,1,1-trifluoropropan-2-yl)-1H-pyrazolo[4,3-c]pyridin-4-yl)benzyl)-5-fluoro-2-methoxybenzamide]
4 | 1 to 5 | 5 to 50 | 1 to 5 | 50 to 500 | > 500 | 5 to 50 | COc1ccc(F)cc1C(=O)NCc1ccc(-c2nc(C(C)C(F)(F)F)c(-c3ccn(C)n3)c3[nH]nc(N)c23)cc1 (single isomer, unassigned) [Example 6-2, N-(4-(3-amino-7-(1-methyl-1H-pyrazol-3-yl)-6-(1,1,1-trifluoropropan-2-yl)-1H-pyrazolo[4,3-c]pyridin-4-yl)benzyl)-5-fluoro-2-methoxybenzamide]
5 | 1 to 5 | 50 to 500 | 1 to 5 | > 500 | > 500 | 5 to 50 | COc1ccc(F)cc1C(=O)NCc1ccc(-c2nc(C(C)C(F)(F)F)c(-c3ncccn3)c3[nH]nc(N)c23)cc1 (single isomer, unassigned) [Example 7-1, N-(4-(3-amino-7-(pyrimidin-2-yl)-6-(1,1,1-trifluoropropan-2-yl)-1H-pyrazolo[4,3-c]pyridin-4-yl)benzyl)-5-fluoro-2-methoxybenzamide]
6 | 1 to 5 | 50 to 500 | 1 to 5 | > 500 | > 500 | 50 to 500 | COc1ccc(F)cc1C(=O)NCc1ccc(-c2nc(C(C)C(F)(F)F)c(-c3ncccn3)c3[nH]nc(N)c23)cc1 (single isomer, unassigned) [Example 7-2, N-(4-(3-amino-7-(pyrimidin-2-yl)-6-(1,1,1-trifluoropropan-2-yl)-1H-pyrazolo[4,3-c]pyridin-4-yl)benzyl)-5-fluoro-2-methoxybenzamide]
7 | 5 to 50 | > 500 | 5 to 50 | 50 to 500 | > 500 | > 500 | COc1ccc(F)cc1C(=O)NCc1ccc(-c2nc(C(C)C(F)(F)F)cc3[nH]nc(N)c23)cc1 (stereo not drawn) [Example 1, N-(4-(3-amino-6-(1,1,1-trifluoropropan-2-yl)-1H-pyrazolo[4,3-c]pyridin-4-yl)benzyl)-5-fluoro-2-methoxybenzamide]
8 | 1 to 5 | 5 to 50 | 1 to 5 | 50 to 500 | > 500 | 5 to 50 | COc1ccc(F)cc1C(=O)NCc1ccc(-c2nc(C(C)C(F)(F)F)c(-c3ccn(C)n3)c3[nH]nc(N)c23)cc1 (stereo not drawn) [Example 6, N-(4-(3-amino-7-(1-methyl-1H-pyrazol-3-yl)-6-(1,1,1-trifluoropropan-2-yl)-1H-pyrazolo[4,3-c]pyridin-4-yl)benzyl)-5-fluoro-2-methoxybenzamide]
9 | 1 to 5 | 50 to 500 | 1 to 5 | 50 to 500 | > 500 | 5 to 50 | COc1ccc(F)cc1C(=O)NCc1ccc(-c2nc(C(C)C(F)(F)F)c(-c3ncccn3)c3[nH]nc(N)c23)cc1 (stereo not drawn) [Example 7, N-(4-(3-amino-7-(pyrimidin-2-yl)-6-(1,1,1-trifluoropropan-2-yl)-1H-pyrazolo[4,3-c]pyridin-4-yl)benzyl)-5-fluoro-2-methoxybenzamide]
10 | 5 to 50 | 50 to 500 | 1 to 5 | 50 to 500 | > 500 | 50 to 500 | COc1ccc(F)cc1C(=O)NCc1ccc(-c2nc(C(C)C(F)(F)F)c(-c3cc(C)[nH]n3)c3[nH]nc(N)c23)cc1 (stereo not drawn) [Example 9, N-(4-(3-amino-7-(5-methyl-1H-pyrazol-3-yl)-6-(1,1,1-trifluoropropan-2-yl)-1H-pyrazolo[4,3-c]pyridin-4-yl)benzyl)-5-fluoro-2-methoxybenzamide]
11 | ≤ 1 | 50 to 500 | ≤ 1 | 50 to 500 | > 500 | 5 to 50 | COc1ccc(F)cc1C(=O)NCc1ccc(-c2ncc(-c3ccccn3)c3[nH]nc(N)c23)cc1 [Example 15, N-(4-(3-amino-7-(pyridin-2-yl)-1H-pyrazolo[4,3-c]pyridin-4-yl)benzyl)-5-fluoro-2-methoxybenzamide]
